Experimental data taken from patent US20230322770A1, “SUBSTITUTED HETEROARYL COMPOUNDS USEFUL AS INHIBITORS OF TLR9” (BRISTOL-MYERS SQUIBB COMPANY, priority 2020, published 2023).

Assays:
Assay type in all cases: cell-based
[1] = molecular target: T1, human TLR8 (Homo sapiens, UniProt Q9NR97); test: TLR8 inhibition reporter assay (HEK-Blue cells, SEAP reporter); settings: HEK-Blue cells overexpressing human TLR8; stimulated with R848 15.9 μM; SEAP after 22 hour incubation
T1 construct: host or cells: HEK-Blue cells (HEK293-derived reporter line)
T1 sequence (Q9NR97 27-1041): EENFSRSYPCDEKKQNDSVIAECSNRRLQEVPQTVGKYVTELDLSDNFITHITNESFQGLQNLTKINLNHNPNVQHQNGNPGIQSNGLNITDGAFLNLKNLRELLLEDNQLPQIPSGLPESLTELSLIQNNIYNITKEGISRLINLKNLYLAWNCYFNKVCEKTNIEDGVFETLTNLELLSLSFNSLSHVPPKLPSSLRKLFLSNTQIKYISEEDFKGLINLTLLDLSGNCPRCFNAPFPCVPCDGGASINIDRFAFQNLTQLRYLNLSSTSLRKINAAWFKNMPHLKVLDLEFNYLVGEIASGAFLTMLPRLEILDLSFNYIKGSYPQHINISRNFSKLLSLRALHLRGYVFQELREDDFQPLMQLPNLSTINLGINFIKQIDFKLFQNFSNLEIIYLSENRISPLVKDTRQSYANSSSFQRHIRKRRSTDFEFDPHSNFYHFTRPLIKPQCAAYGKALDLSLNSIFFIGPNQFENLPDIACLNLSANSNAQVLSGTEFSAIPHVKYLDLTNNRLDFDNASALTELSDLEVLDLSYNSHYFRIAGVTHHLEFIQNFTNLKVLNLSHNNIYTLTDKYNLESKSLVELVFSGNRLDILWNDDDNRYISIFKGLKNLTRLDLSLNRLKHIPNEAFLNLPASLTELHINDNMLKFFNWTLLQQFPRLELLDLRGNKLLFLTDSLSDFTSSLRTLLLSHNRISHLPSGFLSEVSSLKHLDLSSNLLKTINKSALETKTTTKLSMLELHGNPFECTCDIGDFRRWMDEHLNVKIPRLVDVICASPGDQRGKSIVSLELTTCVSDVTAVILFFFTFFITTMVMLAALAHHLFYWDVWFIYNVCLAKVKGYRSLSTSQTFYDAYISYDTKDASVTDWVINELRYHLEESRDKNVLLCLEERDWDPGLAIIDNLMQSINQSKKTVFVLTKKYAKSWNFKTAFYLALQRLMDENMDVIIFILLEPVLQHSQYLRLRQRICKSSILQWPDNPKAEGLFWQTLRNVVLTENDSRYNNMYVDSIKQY
Description: (§1) TLR7/8/9 Inhibition Reporter Assays
(§2) HEK-Blue™-cells (Invivogen) overexpressing human TLR7, TLR8 or TLR9 receptors were used for screening inhibitors of these receptors using an inducible SEAP (secreted embryonic alkaline phosphatase) reporter gene under the control of the IFN-β minimal promoter fused to five NF-κB and AP-1-binding sites. Briefly, cells are seeded into Greiner 384 well plates (15000 cells per well for TLR7, 20,000 for TLR8 and 25,000 for TLR9) and then treated with test compounds in DMSO to yield a final dose response concentration range of 0.05 nM-50 μM. After a 30 minute compound pre-treatment at room temperature, the cells are then stimulated with a TLR7 ligand (gardiquimod at a final concentration of 7.5 μM), TLR8 ligand (R848 at a final concentration of 15.9 μM) or TLR9 ligand (ODN2006 at a final concentration of 5 nM) to activate NF-κB and AP-1 which induce the production of SEAP. After a 22 hour incubation at 37° C., 5% CO2, SEAP levels are determined with the addition of HEK-Blue™ Detection reagent (Invivogen), a cell culture medium that allows for detection of SEAP, according to manufacturer's specifications. The percent inhibition is determined as the % reduction in the HEK-Blue signal present in wells treated with agonist plus DMSO alone compared to wells treated with a known inhibitor.

[2] = molecular target: T2, human TLR7 (Homo sapiens, UniProt Q9NYK1); test: TLR7 inhibition reporter assay (HEK-Blue cells, SEAP reporter); settings: HEK-Blue cells overexpressing human TLR7; stimulated with gardiquimod 7.5 μM; SEAP after 22 hour incubation
T2 construct: host or cells: HEK-Blue cells (HEK293-derived reporter line)
T2 sequence (Q9NYK1 27-1049): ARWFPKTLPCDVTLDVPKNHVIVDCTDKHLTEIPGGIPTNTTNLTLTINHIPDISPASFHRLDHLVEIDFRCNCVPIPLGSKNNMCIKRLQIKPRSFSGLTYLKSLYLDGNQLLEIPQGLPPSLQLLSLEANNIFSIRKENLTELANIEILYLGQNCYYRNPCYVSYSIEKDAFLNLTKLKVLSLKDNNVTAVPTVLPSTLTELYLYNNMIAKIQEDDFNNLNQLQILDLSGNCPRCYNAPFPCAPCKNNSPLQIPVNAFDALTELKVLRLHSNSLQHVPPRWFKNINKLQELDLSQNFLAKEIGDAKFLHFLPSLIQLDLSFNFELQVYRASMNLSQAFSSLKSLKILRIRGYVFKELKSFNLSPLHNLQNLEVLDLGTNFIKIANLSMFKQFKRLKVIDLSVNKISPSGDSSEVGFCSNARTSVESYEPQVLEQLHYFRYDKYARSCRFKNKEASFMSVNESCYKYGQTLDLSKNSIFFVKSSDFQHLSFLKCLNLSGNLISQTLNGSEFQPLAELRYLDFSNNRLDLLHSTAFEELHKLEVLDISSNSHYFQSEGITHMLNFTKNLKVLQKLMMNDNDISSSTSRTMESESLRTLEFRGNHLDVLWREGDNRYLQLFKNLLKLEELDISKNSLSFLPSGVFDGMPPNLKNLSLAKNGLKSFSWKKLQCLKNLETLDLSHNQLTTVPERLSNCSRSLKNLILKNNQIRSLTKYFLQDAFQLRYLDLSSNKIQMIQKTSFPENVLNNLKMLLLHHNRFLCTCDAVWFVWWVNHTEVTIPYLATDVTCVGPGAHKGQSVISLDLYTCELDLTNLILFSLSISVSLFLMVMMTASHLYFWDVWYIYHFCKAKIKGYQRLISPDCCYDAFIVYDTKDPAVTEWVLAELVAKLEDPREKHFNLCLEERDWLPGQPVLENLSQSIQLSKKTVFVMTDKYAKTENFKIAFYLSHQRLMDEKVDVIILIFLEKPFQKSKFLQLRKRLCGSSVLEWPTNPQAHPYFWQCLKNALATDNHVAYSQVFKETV
Description: as §1, §2

[3] = molecular target: T3, human TLR9 (Homo sapiens, UniProt Q9NR96); test: TLR9 inhibition reporter assay (HEK-Blue cells, SEAP reporter); settings: HEK-Blue cells overexpressing human TLR9; stimulated with ODN2006 5 nM; SEAP after 22 hour incubation
T3 construct: host or cells: HEK-Blue cells (HEK293-derived reporter line)
T3 sequence (Q9NR96 26-1032): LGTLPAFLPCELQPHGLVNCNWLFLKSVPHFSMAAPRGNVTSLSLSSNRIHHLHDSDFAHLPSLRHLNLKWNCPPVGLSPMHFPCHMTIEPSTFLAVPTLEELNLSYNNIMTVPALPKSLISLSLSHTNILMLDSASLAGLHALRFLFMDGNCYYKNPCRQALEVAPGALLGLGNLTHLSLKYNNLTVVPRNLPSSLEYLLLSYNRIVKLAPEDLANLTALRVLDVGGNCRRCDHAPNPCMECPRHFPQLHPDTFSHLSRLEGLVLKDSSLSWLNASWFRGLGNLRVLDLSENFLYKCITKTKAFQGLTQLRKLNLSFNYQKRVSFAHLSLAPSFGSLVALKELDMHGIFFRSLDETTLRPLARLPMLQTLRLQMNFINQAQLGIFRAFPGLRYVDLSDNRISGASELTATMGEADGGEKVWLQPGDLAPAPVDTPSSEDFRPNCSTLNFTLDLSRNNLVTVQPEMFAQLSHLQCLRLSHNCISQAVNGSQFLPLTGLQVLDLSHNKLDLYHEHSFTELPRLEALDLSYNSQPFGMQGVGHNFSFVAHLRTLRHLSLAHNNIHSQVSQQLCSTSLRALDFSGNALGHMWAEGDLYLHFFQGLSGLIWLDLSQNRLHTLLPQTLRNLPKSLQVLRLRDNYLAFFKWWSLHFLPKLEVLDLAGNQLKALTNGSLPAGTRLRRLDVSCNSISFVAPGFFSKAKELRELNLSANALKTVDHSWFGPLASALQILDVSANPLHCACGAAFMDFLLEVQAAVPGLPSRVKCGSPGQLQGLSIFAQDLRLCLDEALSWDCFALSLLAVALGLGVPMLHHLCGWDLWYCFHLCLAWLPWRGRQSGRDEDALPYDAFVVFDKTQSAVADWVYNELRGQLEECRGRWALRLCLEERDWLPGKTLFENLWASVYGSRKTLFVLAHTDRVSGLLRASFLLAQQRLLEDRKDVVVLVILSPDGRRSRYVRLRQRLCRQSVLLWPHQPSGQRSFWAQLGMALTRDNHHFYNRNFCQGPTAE
Description: as §1, §2

Row | SMILES | IC50 [1] [µM] | IC50 [2] [µM] | IC50 [3] [nM]
1 | CC(C)N1CCN(c2ccc(-c3cnc4cc(-c5ccc(S(C)(=O)=O)cc5)[nH]c4c3)cc2)CC1 [Example 11, 6-(4-(4-isopropylpiperazin-1-yl)phenyl)-2-(4-(methylsulfonyl)phenyl)-1H-pyrrolo[3,2-b]pyridine] | > 50 | 1.9 | 
2 | COc1ccc(-c2cc3ncc(-c4ccc(C(=O)N5CCN(C(C)C)CC5)cc4)cc3n2C)cc1OC [Example 5, (4-(2-(3,4-Dimethoxyphenyl)-1-methyl-1H-pyrrolo[3,2-b]pyridin-6-yl)phenyl)(4-isopropylpiperazin-1-yl)methanone] | 10.2 | 7.2 | 
3 | COc1ccc(-c2cc3ncc(-c4ccc(N5CCN(C(C)C)CC5)nc4)cc3n2C)cc1OC [Example 9, 2-(3,4-dimethoxyphenyl)-6-(6-(4-isopropylpiperazin-1-yl)pyridin-3-yl)-1-methyl-1H-pyrrolo[3,2-b]pyridine] | 8.7 | 4.7 | 
4 | Cn1c(-c2ccc(S(C)(=O)=O)cc2)cc2ncc(-c3ccc(N4CCN(CCC(C)(C)O)CC4)cc3)cc21 [Example 16, -methyl-4-(4-(4-(1-methyl-2-(4-(methylsulfonyl)phenyl)-1H-pyrrolo[3,2-b]pyridin-6-yl)phenyl)piperazin-1-yl)butan-2-ol] | 4.7 | 8.7 | 
5 | CN(C)S(=O)(=O)c1cccc(-c2cc3ncc(-c4ccc(N5CCN(C6CC6)CC5)cc4)cc3n2C)c1 [Example 44] |  |  | 700
6 | CC(C)N1[C@H](C)CN(c2ccc(-c3cnc4cc(-c5ccc(S(C)(=O)=O)cc5)n(C)c4c3)cc2)C[C@H]1C [Example 35] |  |  | 91
7 | Cn1c(-c2ccc(S(C)(=O)=O)cc2)cc2ncc(-c3ccc(N4CCN5CCCC5C4)cc3)cc21 (stereo not shown) [Example 27] |  |  | 275
8 | COc1ccc(-c2cc3ncc(-c4ccc(N5CCN(C(C)C)CC5)cc4)cc3n2C)cc1F [Example 10, 2-(3-fluoro-4-methoxyphenyl)-6-(4-(4-isopropylpiperazin-1-yl)phenyl)-1-methyl-1H-pyrrolo[3,2-b]pyridine] | 41.7 | 15.5 | 
9 | COc1ccc(-c2cc3ncc(-c4ccc(N5CCNCC5)cc4)cc3n2C)cc1OC [Example 13, 2-(3,4-dimethoxyphenyl)-1-methyl-6-(4-(piperazin-1-yl)phenyl)-1H-pyrrolo[3,2-b] pyridine] | 3.6 | 3 | 
10 | COc1ccc(-c2cc3ncc(-c4ccc(N5CCN(CCC(C)(C)O)CC5)cc4)cc3n2C)cc1OC [Example 12, 4-(4-(4-(2-(3,4-dimethoxyphenyl)-1-methyl-1H-pyrrolo[3,2-b]pyridin-6-yl)phenyl)piperazin-1-yl)-2-methylbutan-2-ol] | 1.3 | 4.8 | 
11 | Cn1c(-c2ccc(S(C)(=O)=O)cc2)cc2ncc(-c3ccc(N4CCN(CC(C)(C)O)CC4)cc3)cc21 [Example 15, 2-methyl-1-(4-(4-(1-methyl-2-(4-(methylsulfonyl)phenyl)-1H-pyrrolo[3,2-b]pyridin-6-yl)phenyl)piperazin-1-yl)propan-2-ol] | 11.2 | ≥ 50 | 
12 | CC(C)CN1CCN(c2ccc(-c3cnc4cc(-c5ccc(S(C)(=O)=O)cc5)n(C)c4c3)cc2)CC1 [Example 6, 6-(4-(4-Isobutylpiperazin-1-yl)phenyl)-1-methyl-2-(4-(methylsulfonyl)phenyl)-1H-pyrrolo[3,2-b]pyridine] |  |  | 139
13 | COc1ccc(-c2cc3ncc(-c4ccc(N5CCN(CC(C)(C)O)CC5)cc4)cc3n2C)cc1OC [Example 4, 1-(4-(4-(2-(3,4-Dimethoxyphenyl)-1-methyl-1H-pyrrolo[3,2-b]pyridin-6-yl)phenyl)piperazin-1-yl)-2-methylpropan-2-ol] |  |  | 256
14 | COc1ccc(-c2cc3ncc(-c4ccc(N5CCN(CC6CC6)CC5)cc4)cc3n2C)cc1OC [Example 8, 6-(4-(4-(cyclopropylmethyl)piperazin-1-yl)phenyl)-2-(3,4-dimethoxyphenyl)-1-methyl-1H-pyrrolo[3,2-b]pyridine] | 5.6 | 14.4 | 
15 | CC(C)CN1CCN(c2ccc(-c3cnc4cc(-c5ccc(S(C)(=O)=O)cc5)[nH]c4c3)cc2)CC1 [Example 14, 6-(4-(4-isobutylpiperazin-1-yl)phenyl)-2-(4-(methylsulfonyl)phenyl)-1H-pyrrolo[3,2-b]pyridine] | > 50 | 29.6 | 
